From PMC5862616 (Oncotarget, 2018)
Where “and” joins values, the source holds several entries; their conditions need not be identical. Equal values may be shown once. Read-outs that look alike come from different tables or passages of the source.

Columns and labels:
KM-12 cells [1] = experiment: KM-12 anchorage independent growth in alginate; format: cell-based; conditions: Homo sapiens, KM12, 72 h, read-out: IC50 KM-12 anchorage independent growth
KM-12 cells [2] = experiment: KM-12 anchorage dependent cell proliferation (CellTiter-Glo); format: cell-based; conditions: Homo sapiens, KM12, 72 h, read-out: IC50 KM-12 cell proliferation (anchorage dependent)
[3] = test system: EL1989 PDX tumors (TPM3-NTRK1); experiment: Colorectal carcinoma PDX model EL1989; conditions: mouse, in vivo
[4] = test system: p-ERK (MAPK 42/44) in KM-12 cells; experiment: Western blot of phosphorylated MAPK 42/44 (ERK) in KM-12 cells; format: cell-based
Method: (§1) 20 μg NTRK1 fusion confirmation
(§2) T20 (ThermoScientific, Rockford, IL) for 30 minutes. MiniPrep cat# R2051 following manufacturer ’s protocol. […]
(§3) (1:2000) (Sigma-Aldrich), HRP-conjugated mouse or primers. The primer sequences are TPM3_Ex3B_F5:
(§4) Chalfont, UK). All western blots were developed using Ex12_R5: […]. PCR was […]

[5] = test system: MKNK1/2 (p-eIF4E S209) in KM-12 cells; experiment: Western blot of p-eIF4E S209 in KM-12 cells; format: cell-based
Method: as §1, §2, §3, §4

[6] = biological target: T1, mutant G595R TPM3-NTRK1 in NIH-3T3 cells (Homo sapiens, UniProt P04629+P06753, G595R); experiment: Immunoblot of p-NTRK1 in NIH-3T3 cells, G595R TPM3-NTRK1; format: cell-based; conditions: 0.2 μM and 0.5 μM, 4 hours
T1 construct: expressed in transfected cells

[7] = test system: p-eIF4E in NIH-3T3 cells expressing TPM3-NTRK1; experiment: Immunoblot of p-eIF4E in NIH-3T3 TPM3-NTRK1 cells; format: cell-based
Method: 350 μg/ml hygromycin selection for 14 days. Each stable CO). Percent Ki67+ area was calculated as the percentage
wild-type or mutated NTRK1. Control vector containing positive. […]
as §1
T20 (ThermoScientific, Rockford, IL) for 30 minutes. MiniPrep cat# R2051 following manufacturer ’s protocol.
A forward primer upstream of the
as §3, §4

MO-91 xenograft tumors = test system: MO-91 xenograft tumors; design: method as in PMID 23811600; conditions: 50 mg/kg once daily; cited from earlier work
MO-91 cells (ETV6-NTRK3) = conditions: read-out: IC50 proliferation of MO-91 cells; in vitro; cited from earlier work
[8] = biological target: T2, wild-type TPM3-NTRK1 in NIH-3T3 cells (Homo sapiens, UniProt P04629+P06753); experiment: Immunoblot of p-NTRK1 in NIH-3T3 cells, wild-type TPM3-NTRK1; format: cell-based; conditions: 0.2 μM and 0.5 μM, 4 hours
T2 construct: expressed in transfected cells

[9] = test system: KM-12 xenograft tumors (TPM3-NTRK1); experiment: KM-12 xenograft tumor model; format: in vivo, athymic nude mice

T1 sequence (P04629 510-796 G595R limits assumed, one chain of several): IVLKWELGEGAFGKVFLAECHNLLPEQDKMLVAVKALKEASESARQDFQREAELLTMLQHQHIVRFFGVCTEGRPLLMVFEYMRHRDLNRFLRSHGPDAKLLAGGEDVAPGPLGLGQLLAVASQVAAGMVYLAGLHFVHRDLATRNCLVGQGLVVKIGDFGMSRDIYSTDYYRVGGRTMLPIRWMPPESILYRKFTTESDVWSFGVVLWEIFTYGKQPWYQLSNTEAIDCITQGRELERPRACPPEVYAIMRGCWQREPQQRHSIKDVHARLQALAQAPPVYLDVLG
T2 sequence (P06753+P04629 fused): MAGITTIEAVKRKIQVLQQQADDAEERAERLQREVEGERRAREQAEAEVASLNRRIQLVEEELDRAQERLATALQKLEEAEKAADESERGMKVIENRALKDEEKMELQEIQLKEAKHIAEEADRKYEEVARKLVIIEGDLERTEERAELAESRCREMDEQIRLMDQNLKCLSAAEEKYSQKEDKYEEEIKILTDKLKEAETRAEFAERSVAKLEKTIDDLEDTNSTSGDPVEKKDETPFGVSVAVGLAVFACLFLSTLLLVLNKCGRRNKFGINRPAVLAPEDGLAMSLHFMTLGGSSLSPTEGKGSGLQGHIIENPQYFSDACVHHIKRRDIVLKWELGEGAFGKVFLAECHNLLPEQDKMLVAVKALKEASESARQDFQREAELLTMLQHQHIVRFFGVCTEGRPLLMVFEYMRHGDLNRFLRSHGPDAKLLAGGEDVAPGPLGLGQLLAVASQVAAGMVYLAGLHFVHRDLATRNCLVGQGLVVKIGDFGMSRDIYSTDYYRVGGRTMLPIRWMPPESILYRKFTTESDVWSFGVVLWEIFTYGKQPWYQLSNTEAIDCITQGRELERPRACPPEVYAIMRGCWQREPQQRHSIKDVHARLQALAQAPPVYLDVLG

p-NTRK1, mutant G595R TPM3-NTRK1, in words [6] | p-NTRK1 (Y490) signaling, wild-type TPM3-NTRK1, in words [8] | Animal weights, KM-12 xenograft study ([9]; merestinib 24 mg/kg once daily, crizotinib 25 mg/kg twice daily, measured twice weekly, relative to vehicle) | SMILES | IC50 (KM-12 cells [1]) [nM] | IC50 (KM-12 cells [2]) [nM] | % Necrosis/Mucin, individual animal [3] | % Necrosis/Mucin, mean per group [3] [%] | T/C, EL1989 PDX [3] [%] | p-ERK inhibition (in words) [4] | p-eIF4E reduction (MKNK1/2 inhibition, in words) [5] | p-eIF4E reduction, in words [7] | Effect on MO-91 xenograft tumors (MO-91 xenograft tumors) | IC50 (MO-91 cells (ETV6-NTRK3)) [nM] | T/C, KM-12 xenograft ([9]; mouse, in vivo) [%] | Concentration giving total inhibition of phosphorylation of MAPK 42/44 (ERK) ([4]; KM-12 cells, 2 hours, 3.9-1000 nM, western blot) [nM] | p-eIF4E reduction (MKNK1/2 inhibition, in words) ([5]; KM-12 cells, 2 hours, western blot, b12: 100, 500, 1000 nM)
little effect | reduced | no significant weight alteration | C[C@@H](Oc1cc(-c2cnn(C3CCNCC3)c2)cnc1N)c1c(Cl)ccc(F)c1Cl [Crizotinib, reference compound] | 276 | 92 | 80% (2×) and 20% and 95% and 30% and 10% | 50 | 13.5 | dose dependent inhibition | small reduction of p-eIF4E | did not show reduction in p-eIF4E | induced tumor regression | 10 | 39.5 | – | –
– | – | – | CN1CCN(c2ccc(C(=O)Nc3n[nH]c4ccc(Cc5cc(F)cc(F)c5)cc34)c(NC3CCOCC3)c2)CC1 [Entrectinib, reference compound] | – | – | – | – | – | – | small reduction of p-eIF4E | – | – | – | – | – | –
partial p-NTRK1 inhibition | reduced | – | O=C(Nc1cnn2ccc(N3CCC[C@@H]3c3cc(F)ccc3F)nc12)N1CC[C@H](O)C1 [Larotrectinib, reference compound] | – | – | – | – | – | – | – | – | – | – | – | 15.6 | small reduction of p-eIF4E
